Reference: paper PMC9246766 (Pharmaceutical research, 2022)
Where two headings read alike, the source gives them in different places.

Experiments:
[1] = target: T1, OCT3 (Homo sapiens, UniProt O75751); assay: ASP+ uptake kinetics in HEK-293 cells overexpressing OCT3; format: cell-based; settings: read-out: Km of OCT3-mediated ASP+ uptake; 2 min uptake, 37°C; OCT3-specific uptake (OCT3 minus empty vector)
T1 sequence (O75751 1-556): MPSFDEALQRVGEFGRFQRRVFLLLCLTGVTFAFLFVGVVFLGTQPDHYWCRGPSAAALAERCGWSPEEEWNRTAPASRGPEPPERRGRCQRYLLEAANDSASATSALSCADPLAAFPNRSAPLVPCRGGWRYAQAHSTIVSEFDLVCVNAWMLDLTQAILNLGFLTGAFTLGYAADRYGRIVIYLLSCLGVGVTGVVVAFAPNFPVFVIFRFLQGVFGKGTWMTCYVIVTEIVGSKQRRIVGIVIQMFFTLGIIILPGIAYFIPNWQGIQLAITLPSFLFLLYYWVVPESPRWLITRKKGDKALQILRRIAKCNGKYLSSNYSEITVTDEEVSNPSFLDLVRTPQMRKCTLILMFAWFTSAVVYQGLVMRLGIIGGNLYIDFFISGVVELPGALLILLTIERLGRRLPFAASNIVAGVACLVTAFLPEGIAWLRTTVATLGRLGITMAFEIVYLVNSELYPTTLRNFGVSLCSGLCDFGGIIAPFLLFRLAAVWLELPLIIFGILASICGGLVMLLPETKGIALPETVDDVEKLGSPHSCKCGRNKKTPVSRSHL

[2] = plasma protein binding used for unbound CMAX; source not given; cited from earlier work
[3] = target: T1, OCT3; settings: read-out: Experimental IC50; OCT3 inhibition, literature value; ref 1 (Bourdet et al., 2005); cited from earlier work
[4] = target: T1, OCT3; assay: Predicted DDI potential: ratio of plasma CMAX (total or unbound) to predicted OCT3 IC50; settings: unbound plasma CMAX over predicted OCT3 IC50
[5] = cited from earlier work; for FDA product insert: warnings, precautions and major adverse reactions: cardiovascular / CNS related, ref FDA product insert
[6] = total maximum plasma concentration; ref http://www.micromedexsolutions.com/; cited from earlier work
[7] = target: T1, OCT3; assay: High throughput screen: inhibition of OCT3-mediated ASP+ uptake in HEK-293 cells stably expressing OCT3; format: cell-based; settings: for inhibition at 20 µM: HEK293
[8] = target: T1, OCT3; assay: IC50 determination against OCT3-mediated [14C]metformin uptake in HEK-293 cells overexpressing OCT3; format: cell-based
[9] = target: T1, OCT3; assay: IC50 determination against OCT3-mediated ASP+ uptake in HEK-293 cells overexpressing OCT3; format: cell-based

Km [1] [µM] | Unbound CMAX/IC50 [4] | IC50 [7] [µM] | inhibition at 20 µM [7] [%] | IC50 [8] [µM] | IC50 [9] [µM] | Structure (SMILES) | Protein binding [2] [%] | IC50 [3] [µM] | FDA product insert: warnings, precautions and major adverse reactions [5] | Neurological side effects ([5]; stated in discussion, ref Table SII, 60) | Cmax [6] [µM] | FDA product insert: warnings, precautions and major adverse reactions ([5]; listed as Trazodone)
33.3 |  |  |  |  |  | CN(C)c1ccc(/C=C/c2cc[n+](C)cc2)cc1 [ASP^+, 4-Di-1-ASP] |  |  |  |  |  | 
 | 28.0 | 9.9 | 66.9 |  |  | NC(N)=Nc1nc(CSCCC(N)=NS(N)(=O)=O)cs1 [famotidine] | 10 | 6.7 ± 2 | Warnings and precautions: Central Nervous System (CNS) Adverse Reactions: Advise elderly patients and those with moderate and severe renal impairment of the risk of CNS adverse reactions, including confusion, delirium, hallucinations, disorientation, agitation, seizures, and lethargy. | neurological side effects | 308 | 
 | 0.15 | < 5 | 94.5 | 2.5 | 5.2 | O=c1n(CCCN2CCN(c3cccc(Cl)c3)CC2)nc2ccccn12 [trazodone] | 90 |  | warnings and precautions related to cardiovascular side-effects |  | 7.6 | Warnings and precautions: Cardiac Arrhythmias: Increases the QT interval. Avoid use with drugs that also increase the QT interval and in patients with risk factors for prolonged QT interval.
